Laboratory results from the supplement of paper PMC11061612.

Assays:
Assay in all cases: Bliss excess, mean over the matrix (fraction); higher = more synergy
CHL-1 (Melanoma) = tested on: CHL-1 (Melanoma)
Procedure, shortened: (§1)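 Cell lines grown in DMEM/F12 or RPMI with 10% FBS were plated in 1536-well plates and held 24 hours at 37°C, 5% CO2 before 72 hours of exposure to two-drug dose matrices, with DMSO typically at 0.2%. CellTiter-Glo 2.0 luminescence gave viability, which was converted to inhibition. Vehicle wells were set to 0 and blank wells to 1. Combination Emax is the second-highest inhibition in the matrix, and Bliss excess is the observed combination effect minus the expected EA + EB − EA·EB, where EA and EB are the single-agent effects.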

[1] = tested on: RERF-LC-KJ (Lung Adenocarcinoma)
Procedure, shortened: as §1

[2] = tested on: NKM-1 (Acute Myeloid Leukemia)
Procedure, shortened: as §1

[3] = tested on: Becker (Low Grade Glioma)
Procedure, shortened: as §1

[4] = tested on: KYSE-70 (Esophageal Squamous Cell Carcinoma)
Procedure, shortened: as §1

[5] = tested on: OV-90 (Ovarian Carcinoma)
Procedure, shortened: as §1

[6] = tested on: COLO-684 (Endometrial Carcinoma)
Procedure, shortened: as §1

[7] = tested on: PC-14 (Lung Adenocarcinoma)
Procedure, shortened: as §1

[8] = tested on: NCI-H810 (Non-Small Cell Lung Carcinoma)
Procedure, shortened: as §1

[9] = tested on: SW684 (Other Solid Carcinomas)
Procedure, shortened: as §1

[10] = tested on: AsPC-1 (Pancreatic Carcinoma)
Procedure, shortened: as §1

[11] = tested on: OCI-AML5 (Acute Myeloid Leukemia)
Procedure, shortened: as §1

[12] = tested on: BALL-1 (B-Lymphoblastic Leukemia)
Procedure, shortened: as §1

[13] = tested on: RMG-I (Ovarian Carcinoma)
Procedure, shortened: as §1

[14] = tested on: LOUCY (T-Lymphoblastic Leukemia)
Procedure, shortened: as §1

[15] = tested on: NCI-H1155 (Non-Small Cell Lung Carcinoma)
Procedure, shortened: as §1

[16] = tested on: HSC-3 (Oral Cavity Carcinoma)
Procedure, shortened: as §1

[17] = tested on: RL95-2 (Endometrial Carcinoma)
Procedure, shortened: as §1

KYM-1 (Rhabdomyosarcoma) = tested on: KYM-1 (Rhabdomyosarcoma)
Procedure, shortened: as §1

[18] = tested on: NCI-H1623 (Lung Adenocarcinoma)
Procedure, shortened: as §1

Row | SMILES | Bliss excess (CHL-1 (Melanoma)) | Bliss excess [1] | Bliss excess [2] | Bliss excess [3] | Bliss excess [4] | Bliss excess [5] | Bliss excess [6] | Bliss excess [7] | Bliss excess [8] | Bliss excess [9] | Bliss excess [10] | Bliss excess [11] | Bliss excess [12] | Bliss excess [13] | Bliss excess [14] | Bliss excess [15] | Bliss excess [16] | Bliss excess [17] | Bliss excess (KYM-1 (Rhabdomyosarcoma)) | Bliss excess [18]
1 | COc1cccc2c1C(=O)c1c(O)c3c(c(O)c1C2=O)C[C@@](O)(C(=O)CO)C[C@@H]3O[C@H]1C[C@H](N)[C@H](O)[C@H](C)O1 [Doxorubicin] + Cc1cc2ncnn2cc1Nc1ncc2c(n1)n(C1CCOCC1)c(=O)n2C [AZD7648] (first compound max 1 µM, 7x7, partner max 10 µM) | 0.002 | 0.0113 | 0.0803 | 0.0406 | 0.0271 | 0.0011 | -0.003 | 0.0728 | 0.0213 | -0.0211 | -0.033 | 0.174 | 0.117 | -0.0445 | 0.0893 | 0.138 | 0.0907 | -0.0064 | 0.0837 | 0.0258
2 | COc1cc2ncnc(Nc3ccc(F)c(Cl)c3)c2cc1OCCCN1CCOCC1 [Gefitinib] + CC(C)n1c(=O)n(C)c2cnc3cc(F)c(-c4ccc(OCCCN5CCCCC5)nc4)cc3c21 [AZD1390] (first compound max 10 µM, 7x7, partner max 0.3 µM) | -0.0472 | -0.0807 | -0.0581 | -0.0247 | -0.038 | -0.0468 | -0.0395 | -0.0565 | -0.0863 | -0.0557 | -0.0975 | -0.051 | -0.07 | -0.0346 | 0.0024 | -0.056 | -0.0649 | -0.0454 | -0.0515 | -0.0268
3 | CS(=O)(=O)CCNCc1ccc(-c2ccc3ncnc(Nc4ccc(OCc5cccc(F)c5)c(Cl)c4)c3c2)o1 [Lapatinib] + C[C@@H](Oc1cc(-c2cnn(C3CCNCC3)c2)cnc1N)c1c(Cl)ccc(F)c1Cl [Crizotinib] (first compound max 10 µM, 7x7, partner max 10 µM) | -0.0393 | 0.074 | -0.0604 | -0.0387 | -0.0359 | -0.0019 | -0.0364 | -0.028 | -0.0386 | -0.0389 | -0.031 | -0.003 | 0.0146 | -0.0367 | -0.102 | -0.0185 | -0.0395 | -0.0535 | -0.0515 | 0.0555
4 | CC(=O)c1c(C)c2cnc(Nc3ccc(N4CCNCC4)cn3)nc2n(C2CCCC2)c1=O [Palbociclib] + CC1(C)CCC(CN2CCN(c3ccc(C(=O)NS(=O)(=O)c4ccc(NCC5CCOCC5)c([N+](=O)[O-])c4)c(Oc4cnc5[nH]ccc5c4)c3)CC2)=C(c2ccc(Cl)cc2)C1 [Venetoclax] (first compound max 10 µM, 7x7, partner max 1 µM) | -0.0357 | -0.0314 | 0.0548 | -0.0205 | -0.0465 | -0.0553 | -0.0614 | -0.0198 | -0.0585 | -0.0492 | -0.0715 | 0.0436 | -0.0053 | -0.0541 | 0.083 | 0.0241 | 0.0148 | 0.0133 | -0.0392 | 0.011
5 | CC(=O)c1c(C)c2cnc(Nc3ccc(N4CCNCC4)cn3)nc2n(C2CCCC2)c1=O [Palbociclib] + Cc1c2c(nn1C)CSCc1cc(n(C)n1)CSc1cc(c3ccccc3c1)OCCCc1c(C(=O)O)n(C)c3c-2c(Cl)ccc13 [AZD5991] (first compound max 10 µM, 7x7, partner max 1 µM) | 0.0344 | -0.0723 | -0.0003 | 0.0059 | -0.0462 | -0.0568 | -0.0173 | -0.0106 | -0.0444 | -0.0906 | -0.0859 | 0.0572 | -0.0683 | -0.061 | 0.0154 | -0.059 | -0.0811 | -0.0841 | 0.0337 | -0.0321
6 | CC(=O)c1c(C)c2cnc(Nc3ccc(N4CCNCC4)cn3)nc2n(C2CCCC2)c1=O [Palbociclib] + Cn1cnc2c(F)c(Nc3ccc(Br)cc3Cl)c(C(=O)NOCCO)cc21 [Selumetinib] (first compound max 10 µM, 7x7, partner max 10 µM) | -0.0342 | -0.0208 | -0.0194 | 0.0393 | -0.0096 | 0.0151 | -0.04 | 0.0408 | -0.0697 | -0.018 | -0.0664 | 0.0868 | -0.12 | -0.0165 | -0.0138 | -0.0201 | -0.0418 | -0.0144 | -0.0022 | 0.0398
7 | COc1cccc(OCCCN)c1-c1cc(Nc2cnc(C#N)cn2)n[nH]1 [Prexasertib] + C=CCn1c(=O)c2cnc(Nc3ccc(N4CCN(C)CC4)cc3)nc2n1-c1cccc(C(C)(C)O)n1 [AZD1775] (first compound max 1 µM, partner max 1 µM) | 0.0485 | 0.0487 | 0.056 | 0.0374 | 0.0874 | -0.0477 | -0.0042 | 0.0069 | 0.0869 | 0.0798 | -0.0189 | 0.063 | 0.0618 | 0.0265 | 0.0578 | 0.0998 | 0.121 | 0.108 | 0.0713 | 0.0519
8 | COc1cccc(OCCCN)c1-c1cc(Nc2cnc(C#N)cn2)n[nH]1 [Prexasertib] + CCc1c2c(nc3ccc(O)cc13)-c1cc3c(c(=O)n1C2)COC(=O)[C@]3(O)CC [SN-38] (first compound max 1 µM, 7x7, partner max 0.3 µM) | 0.0254 | 0.0513 | -0.0554 | -0.0716 | 0.0907 | -0.0591 | 0.0379 | -0.0169 | 0.0967 | 0.0036 | -0.0333 | -0.0197 | -0.016 | -0.102 | 0.0103 | -0.0161 | -0.0455 | 0.153 | -0.0634 | -0.0364
9 | COc1cccc(OCCCN)c1-c1cc(Nc2cnc(C#N)cn2)n[nH]1 [Prexasertib] + CN(C)CCCOc1ccc(-c2ccc3ncc4c(c3c2)n(C2CCOCC2)c(=O)n4C)cn1 [AZD0156] (first compound max 1 µM, 7x7, partner max 1 µM) | 0.0059 | -0.0159 | -0.0165 | -0.0203 | -0.0233 | -0.035 | -0.0172 | -0.0284 | -0.0327 | -0.0432 | 0.0303 | 0.0781 | 0.0043 | -0.04 | 0.0036 | -0.0753 | -0.0322 | -0.0364 | 0.0147 | -0.0206
10 | COc1cccc(OCCCN)c1-c1cc(Nc2cnc(C#N)cn2)n[nH]1 [Prexasertib] + C[C@@H]1COCCN1C2=NC(=NC(=C2)C3(CC3)[S@](=N)(=O)C)C4=C5C=CNC5=NC=C4 [AZD6738] (first compound max 1 µM, 7x7, partner max 10 µM) | 0.0139 | -0.0002 | -0.0583 | -0.0317 | 0.0378 | -0.0275 | -0.0733 | -0.047 | -0.0519 | -0.018 | 0.0292 | -0.0205 | -0.001 | 0.0108 | -0.0009 | -0.0438 | 0.0351 | -0.0487 | -0.0107 | -0.0745
11 | COc1cccc(OCCCN)c1-c1cc(Nc2cnc(C#N)cn2)n[nH]1 [Prexasertib] + Cc1cc2ncnn2cc1Nc1ncc2c(n1)n(C1CCOCC1)c(=O)n2C [AZD7648] (first compound max 1 µM, 7x7, partner max 10 µM) | -0.0122 | 0.0558 | -0.0271 | -0.0081 | -0.0383 | 0.0252 | -0.0547 | -0.037 | 0.0108 | -0.0408 | -0.0242 | 0.0718 | 0.0202 | -0.0235 | -0.0021 | 0.0039 | -0.0096 | -0.0263 | -0.0078 | -0.0588
12 | COc1cccc(OCCCN)c1-c1cc(Nc2cnc(C#N)cn2)n[nH]1 [Prexasertib] + O=C(c1cc(Cc2n[nH]c(=O)c3ccccc23)ccc1F)N1CCN(C(=O)C2CC2)CC1 [Olaparib] (first compound max 1 µM, 7x7, partner max 10 µM) | -0.051 | -0.0597 | -0.0706 | -0.0257 | -0.0248 | -0.0191 | -0.128 | -0.0478 | -0.0082 | -0.0742 | -0.0956 | -0.045 | -0.0145 | -0.124 | -0.0422 | -0.0309 | -0.0093 | -0.0343 | -0.0609 | -0.0777
13 | COc1cc2c(cc1OCCCCCOc1cc3c(cc1OC)C(=O)N1C=C(C)C[C@H]1C=N3)N=C[C@@H]1CC(C)=CN1C2=O [SG3199] + O=C(c1cc(Cc2n[nH]c(=O)c3ccccc23)ccc1F)N1CCN(C(=O)C2CC2)CC1 [Olaparib] (first compound max 0.001 µM, 7x7, partner max 10 µM) | -0.0227 | -0.0235 | -0.0362 | -0.0361 | -0.0227 | -0.0422 | -0.0286 | -0.0274 | -0.0368 | -0.056 | -0.0535 | 0.0232 | 0.0476 | -0.0599 | -0.039 | 0.0119 | -0.0067 | -0.0383 | -0.0201 | -0.0342
14 | CCc1c2c(nc3ccc(O)cc13)-c1cc3c(c(=O)n1C2)COC(=O)[C@]3(O)CC [SN-38] + CN(C)CCCOc1ccc(-c2ccc3ncc4c(c3c2)n(C2CCOCC2)c(=O)n4C)cn1 [AZD0156] (first compound max 0.3 µM, 7x7, partner max 1 µM) | 0.0336 | -0.083 | 0.033 | 0.0387 | 0.0487 | -0.012 | -0.0265 | 0.0407 | -0.0022 | -0.0457 | -0.029 | -0.0231 | 0.0492 | 0.018 | 0.0406 | 0.0268 | -0.0063 | 0.0502 | 0.0465 | -0.0496
15 | C[C@@H](c1ccc2nccn2c1)n1nnc2ncc(-c3cnn(C)c3)nc21 [Savolitinib] + CC1(C)CCC(CN2CCN(c3ccc(C(=O)NS(=O)(=O)c4ccc(NCC5CCOCC5)c([N+](=O)[O-])c4)c(Oc4cnc5[nH]ccc5c4)c3)CC2)=C(c2ccc(Cl)cc2)C1 [Venetoclax] (first compound max 1 µM, 7x7, partner max 1 µM) | -0.0511 | -0.077 | 0.0653 | -0.0182 | -0.0504 | -0.063 | -0.0458 | -0.0276 | -0.0517 | -0.0461 | -0.0743 | -0.031 | -0.0306 | -0.0756 | -0.0803 | -0.0365 | -0.0383 | -0.0481 | -0.0133 | -0.046
